We go through 36 compounds from patent US8802664B2 (Bioproject, priority 2010, dated 2014).

For the first test, the target named is T1, human H4 receptor (Homo sapiens, UniProt Q9H3N8).
T1 construct: expressed in transfected cells
T1 sequence (Q9H3N8 whole entry): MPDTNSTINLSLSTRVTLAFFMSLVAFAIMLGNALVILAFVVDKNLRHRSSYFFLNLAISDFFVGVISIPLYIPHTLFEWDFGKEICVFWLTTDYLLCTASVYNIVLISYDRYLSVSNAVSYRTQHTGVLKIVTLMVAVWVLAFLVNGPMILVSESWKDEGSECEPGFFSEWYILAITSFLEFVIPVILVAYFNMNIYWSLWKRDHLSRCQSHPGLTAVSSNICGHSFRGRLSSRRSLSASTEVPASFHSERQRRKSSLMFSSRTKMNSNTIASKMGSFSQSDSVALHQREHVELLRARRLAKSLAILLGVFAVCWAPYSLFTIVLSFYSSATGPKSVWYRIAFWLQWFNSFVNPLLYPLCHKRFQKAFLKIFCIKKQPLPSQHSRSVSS
Kind of test: [3H]Histamine binding on membranes of CHO cells stably expressing human H4 receptor.
Settings: not given
The essentials:
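Membranes from sub-confluent CHO-hH4 cells, 20 μg protein per well, were incubated in 50 mM Tris/HCl, 0.5 mM EDTA, pH 7.4. Nonspecific binding was defined with 10 μM JNJ 7777120. Bound radioactivity was collected on PEI-soaked GF/B filters and counted by liquid scintillation.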
`CN1CCC(OC(c2cccc(OCC3CCCNC3)c2)c2nc3ccccc3s2)CC1` (stereo not drawn) [Example 378, 2-{(1-methylpiperidin-4-yloxy)[3-(piperidin-3-ylmethoxy)phenyl]methyl}benzothiazole] returned a Ki or IC50 activity class of less than 1000 nM.

`CN1CCC(OC(c2cccc(OCC3CCCN(C)C3)c2)c2nc3ccccc3s2)CC1` (stereo not drawn) [Example 379, 2-[[3-(1-methylpiperidin-3-ylmethoxy)phenyl](1-methylpiperidin-4-yloxy)methyl]benzothiazole] gave a Ki or IC50 activity class of less than 1000 nM.

As to `CN1CCC(OC(c2cccc(SCCCCCN)c2)c2nc3ccccc3[nH]2)CC1` (stereo not drawn) [Example 381, 5-{3-[(1H-benzimidazol-2-yl)(1-methylpiperidin-4-yloxy)methyl]phenylsulfanyl}pentylamine], the Ki or IC50 activity class is less than 30 nM.

`CN1CCC(OC(c2cccc(OC3CCNC3)c2)c2nc3ccccc3s2)CC1` (stereo not drawn) [Example 382, 2-{(1-methylpiperidin-4-yloxy)[3-(pyrrolidin-3-yloxy)phenyl]methyl}benzothiazole] showed a Ki or IC50 activity class of less than 30 nM.

Regarding `CN1CCC(OC(c2cccc(OC3CCNC3)c2)c2nc3ccccc3s2)CC1` (stereo not drawn) [Example 383, 2-{(1-methylpiperidin-4-yloxy)[3-(pyrrolidin-3-yloxy)phenyl]methyl}benzothiazole], the Ki or IC50 activity class is less than 300 nM.

`CN1CCC(OC(c2cccc(C=CCCCO)c2)c2nc3ccccc3s2)CC1` (stereo not drawn) [Example 384, 5-{3-[benzothiazol-2-yl(1-methylpiperidin-4-yloxy)methyl]phenyl}pent-4-en-1-ol] returned a Ki or IC50 activity class of less than 300 nM.

On to `CN1CCC(OC(c2cccc(C=CCCCO)c2)c2nc3ccccc3[nH]2)CC1` (stereo not drawn) [Example 389, 5-{3-[(1H-benzimidazol-2-yl)(1-methylpiperidin-4-yloxy)methyl]phenyl}pent-4-en-1-ol], for which the Ki or IC50 activity class is less than 300 nM.

`CN1CCC(OC(c2cccc(C=CCCCO)c2)c2nc3ccccc3s2)CC1` (stereo not drawn) [Example 390, 5-{3-[(benzothiazol-2-yl)(1-methylpiperidin-4-yloxy)methyl]phenyl}pent-4-en-1-ol] came in with a Ki or IC50 activity class of less than 30 nM.

The compound `CN1CCC(OC(c2cccc(OCCCCCN3CCN(C(=O)OC(C)(C)C)CC3)c2)c2nc3ccccc3[nH]2)CC1` (stereo not drawn) [Example 391, 4-(5-{3-[(1H-benzimidazol-2-yl)(1-methylpiperidin-4-yloxy)methyl]phenoxy}pentyl)piperazine-1-carboxylic acid tert-butyl ester] registered a Ki or IC50 activity class of less than 1000 nM.

`CN1CCC(OC(c2cccc(C#CCCNC(=N)N)c2)c2nc3ccccc3[nH]2)CC1` (stereo not drawn) [Example 393, N-(4-{3-[(1H-benzimidazol-2-yl)(1-methylpiperidin-4-yloxy)methyl]phenyl}but-3-ynyl)guanidine] showed a Ki or IC50 activity class of less than 30 nM.

Compound `CN1CCC(OC(c2cccc(C3CCN(C(=N)N)CC3)c2)c2nc3ccccc3[nH]2)CC1` (stereo not drawn) [Example 394, 4-{3-[(1H-benzimidazol-2-yl)(1-methylpiperidin-4-yloxy)methyl]phenyl}piperidine-1-carboxamidine] had a Ki or IC50 activity class of less than 1000 nM.

`CN1CCC(OC(c2cccc(CCC3CCNCC3)c2)c2nc3ccccc3[nH]2)CC1` (stereo not drawn) [Example 396, 2-{(1-methylpiperidin-4-yloxy)[3-(2-piperidin-4-yl-ethyl)phenyl]methyl}-1H-benzimidazole] registered a Ki or IC50 activity class of less than 1000 nM.

The compound `CN1CCC(OC(c2cccc(CCCCCNC(=N)N)c2)c2nc3ccccc3[nH]2)CC1` (stereo not drawn) [Example 397, N-(5-{3-[(1H-benzimidazol-2-yl)(1-methylpiperidin-4-yloxy)methyl]phenyl}pentyl)guanidine] displayed a Ki or IC50 activity class of less than 300 nM.

`CN1CCC(OC(c2cccc(SCCCc3cnc[nH]3)c2)c2nc3ccccc3[nH]2)CC1` (stereo not drawn) [Example 398, 2-[{3-[3-(3H-imidazol-4-yl)propylsulfanyl]phenyl}(1-methylpiperidin-4-yloxy)methyl]-1H-benzimidazole] gave a Ki or IC50 activity class of less than 300 nM.

Compound `CN1CCC(OC(c2cccc(OCCCCCN)c2)c2nc3ccccc3[nH]2)CC1` (stereo not drawn) [Example 400, 5-{3-[(1H-benzimidazol-2-yl)(1-methylpiperidin-4-yloxy)methyl]phenoxy}pentylamine] had a Ki or IC50 activity class of less than 30 nM.

`CC(=O)NC(=N)NCCSc1cccc(C(OC2CCN(C)CC2)c2nc3ccccc3[nH]2)c1` (stereo not drawn) [Example 401, N-acetyl-N′-(2-{3-[(1H-benzimidazol-2-yl)(1-methylpiperidin-4-yloxy)methyl]phenylsulfanyl}ethyl)guanidine] returned a Ki or IC50 activity class of less than 300 nM.

On to `CN1CCC(OC(c2cccc(OC3CNC3)c2)c2nc3ccccc3s2)CC1` (stereo not drawn) [Example 402, 2-[[3-(azetidin-3-yloxy)phenyl](1-methylpiperidin-4-yloxy)methyl]benzothiazole], for which the Ki or IC50 activity class was less than 300 nM.

For the compound `CN1CCC(OC(c2cccc(N3CC(O)C3)c2)c2nc3ccccc3s2)CC1` (stereo not drawn) [Example 403, 1-{3-[benzothiazol-2-yl(1-methylpiperidin-4-yloxy)methyl]phenyl}azetidin-3-ol], the Ki or IC50 activity class was less than 300 nM.

For `CN1CCC(OC(c2cccc(N3CCC(CO)C3)c2)c2nc3ccccc3s2)CC1` (stereo not drawn) [Example 404, (1-{3-[benzothiazol-2-yl(1-methylpiperidin-4-yloxy)methyl]phenyl}pyrrolidin-3-yl)methanol], the Ki or IC50 activity class was less than 300 nM.

On to `CN1CCC(OC(c2cccc(N3CCC(N)CC3)c2)c2nc3ccccc3s2)CC1` (stereo not drawn) [Example 405, 1-{3-[benzothiazol-2-yl(1-methylpiperidin-4-yloxy)methyl]phenyl}piperidin-4-ylamine], for which the Ki or IC50 activity class was less than 300 nM.

The compound `CN1CCC(OC(c2cccc(N3CCC(O)C3)c2)c2nc3ccccc3s2)CC1` (stereo not drawn) [Example 406, 1-{3-[benzothiazol-2-yl(1-methylpiperidin-4-yloxy)methyl]phenyl}pyrrolidin-3-ol] showed a Ki or IC50 activity class of less than 30 nM.

`CC(=O)NC1CCN(c2cccc(C(OC3CCN(C)CC3)c3nc4ccccc4s3)c2)C1` (stereo not drawn) [Example 408, N-(1-{3-[benzothiazol-2-yl(1-methylpiperidin-4-yloxy)methyl]phenyl}pyrrolidin-3-yl)acetamide] returned a Ki or IC50 activity class of less than 300 nM.

Turning to `CN1CCC(OC(c2cccc(C#CCCCn3ccnc3)c2)c2nc3ccccc3[nH]2)CC1` (stereo not drawn) [Example 409, 2-[[3-(5-imidazol-1-ylpent-1-ynyl)phenyl](1-methylpiperidin-4-yloxy)methyl]-1H-benzimidazole], the Ki or IC50 activity class was less than 300 nM.

Turning to `CN1CCC(OC(c2cccc(C#CCCCn3cccn3)c2)c2nc3ccccc3[nH]2)CC1` (stereo not drawn) [Example 410, 2-{(1-methylpiperidin-4-yloxy)[3-(5-pyrazol-1-yl-pent-1-ynyl)phenyl]methyl}-1H-benzimidazole], the Ki or IC50 activity class was less than 300 nM.

`CN1CCC(OC(c2cccc(N3CCC(O)CC3)c2)c2nc3ccccc3s2)CC1` (stereo not drawn) [Example 411, 1-{3-[benzothiazol-2-yl(1-methylpiperidin-4-yloxy)methyl]phenyl}piperidin-4-ol] returned a Ki or IC50 activity class of less than 1000 nM.

In turn, `CN1CCC(OC(c2cccc(CCc3c[nH]cn3)c2)c2nc3ccccc3[nH]2)CC1` (stereo not drawn) [Example 412, 2-[{3-[2-(1H-imidazol-4-yl)ethyl]phenyl}(1-methylpiperidin-4-yloxy)methyl]-1H-benzimidazole] showed a Ki or IC50 activity class of less than 1000 nM.

For `CC(=O)OC1CCN(c2cccc(C(OC3CCN(C)CC3)c3nc4ccccc4s3)c2)CC1` (stereo not drawn) [Example 413, acetic acid 1-{3-[benzothiazol-2-yl(1-methylpiperidin-4-yloxy)methyl]phenyl}piperidin-4-yl ester], the Ki or IC50 activity class is less than 300 nM.

On to `CN1CCC(OC(c2cccc(OC3CCNCC3)c2)c2nc3ccccc3s2)CC1` (stereo not drawn) [Example 415, 2-{(1-methylpiperidin-4-yloxy)[3-(piperidin-4-yloxy)phenyl]methyl}benzothiazole], for which the Ki or IC50 activity class was less than 300 nM.

Compound `CN1CCC(OC(c2cccc(C#CCCCn3nccn3)c2)c2nc3ccccc3[nH]2)CC1` (stereo not drawn) [Example 416, 2-{(1-methylpiperidin-4-yloxy)[3-(5-[1,2,3]triazol-2-yl-pent-1-ynyl)phenyl]methyl}-1H-benzimidazole] displayed a Ki or IC50 activity class of less than 300 nM.

For `CN1CCC(OC(c2cccc(C#CCCCn3ccnn3)c2)c2nc3ccccc3[nH]2)CC1` (stereo not drawn) [Example 417, 2-{(1-methylpiperidin-4-yloxy)[3-(5-[1,2,3]triazol-1-ylpent-1-ynyl)phenyl]methyl}-1H-benzimidazole], the Ki or IC50 activity class is less than 1000 nM.

Regarding `CN1CCC(OC(c2cccc(C#CCNC(=N)N)c2)c2nc3ccccc3[nH]2)CC1` (stereo not drawn) [Example 418, N-(3-{3-[(1H-benzimidazol-2-yl)(1-methylpiperidin-4-yloxy)methyl]phenyl}prop-2-ynyl)guanidine], the Ki or IC50 activity class was less than 30 nM.

`CN1CCC(OC(c2cccc(OCCCCCNCCCCN)c2)c2nc3ccccc3[nH]2)CC1` (stereo not drawn) [Example 419, N1-(5-{3-[(1H-benzimidazol-2-yl)(1-methylpiperidin-4-yloxy)methyl]phenoxy}pentyl)butane-1,4-diamine] displayed a Ki or IC50 activity class of less than 1000 nM.

For the compound `CN1CCC(OC(c2cccc(C=CCCCN)c2)c2nc3ccccc3[nH]2)CC1` (stereo not drawn) [Example 421, 5-{3-[(1H-benzimidazol-2-yl)(1-methylpiperidin-4-yloxy)methyl]phenyl}pent-4-enylamine], the Ki or IC50 activity class is less than 30 nM.

On to `CN1CCC(OC(c2cccc(OCC=CCO)c2)c2nc3ccccc3s2)CC1` (stereo not drawn) [Example 422, 4-{3-[benzothiazol-2-yl(1-methylpiperidin-4-yloxy)methyl]phenoxy}but-2-en-1-ol], for which the Ki or IC50 activity class was less than 30 nM.

`CN1CCC(OC(c2cccc(N3CCC(N)C3)c2)c2nc3ccccc3s2)CC1` (stereo not drawn) [Example 423, 1-{3-[benzothiazol-2-yl(1-methylpiperidin-4-yloxy)methyl]phenyl}pyrrolidin-3-ylamine] returned a Ki or IC50 activity class of less than 300 nM.

Staying with this test, now noted: human H4 receptor; evaluated in the GTPγ[35S] assay or in the [3H]histamine binding assay (not stated which per compound); Ki or IC50 class.
Compound `CN1CCC(OC(c2cccc(N3CCC(O)C3)c2)c2nc3ccccc3s2)CC1` (stereo not drawn) [Example 407, 1-{3-[benzothiazol-2-yl(1-methylpiperidin-4-yloxy)methyl]phenyl}pyrrolidin-3-ol] registered a Ki or IC50 activity class of less than 30 nM.
